Test results reported in patent publication US6015820A, “4-Aryl-thio-pyridin-2(1H)-ones, medicines containing them and their uses in the treatment of illnesses linked to HIV” (priority 1995, dated 2000).
Read-outs that look alike come from different tables or passages of the source.

Experiments:
IT of recombinant HIV-1 = target: T1, IT of recombinant HIV-1 (Human immunodeficiency virus type 1 group M subtype B, UniProt P03369); test: inhibition of the inverse transcriptase of recombinant HIV-1; format: biochemical
T1 construct: purify the IT enzyme of the recombinant HIV-1; made in house; host or cells: yeast cells transformed with the pAB 24/IT-4 vector
Procedure: Yeast cells transformed with the pAB 24/IT-4 vector were used to purify the IT enzyme of the recombinant HIV-1 as described by Sallafranque-Andreola et al. (1989 Eur. J. Biochem. 184, 364-374).
Incubation was carried out at 37° C. for 10 minutes in the presence of various matrix-primers.
a) Poly C-oligo dG: the reaction mixture contained a final volume of 0.05 ml, Tris-HCl 50 mM pH 8.0, MgCl2 5 mM, dithiothreitol 4 mM, 0.48 A260 /ml of poly C-oligo dG (5:1), 1.0 μCi of [^3 H]dGTP (28 Ci/mmole), dGTP 2 μM, KCl 80 mM, 1 μg of bovine serum albumin and IT 20-50 nM.
b) Poly A-oligo dT: the same conditions as in a), except that 0.48 A260 /ml of poly A-oligo dT (5:1), 0.5 μCi of [^3 H]dTTP (46 Ci/mmole), dTTP 20 μM were used.
The reactions were stopped by adding in the cold 1 ml of 10% trichloroacetic acid plus sodium pyrophosphate 0.1 M. The precipitates were filtered through nitrocellulose membranes, washed with 2% trichloroacetic acid, dried and counted in a PPO/POPOP/toluene scintillation mixture.
All the compounds were dissolved in dimethyl#sulphoxide (DMSO). The test samples were prepared in the presence of the same final concentration of DMSO. IC50 is the concentration required to inhibit the activity of the IT of the recombinant HIV-1 by 50%.

HIV-1 LAI = test: anti-HIV-1 activity: replication of HIV-1 LAI on CEM-SS cells; format: cell-based; conditions: Table 2, HIV-1 LAI, CEM-SS cells; for IC50: Human immunodeficiency virus 1, 120 h, 5 days, read-out: IC50, anti-HIV-1 activity
Procedure: The CEM-SS and the HIV-1 resistant to Nevirapine (N119) carrying a point mutation at codon 181 of the IT, were supplied respectively by P. NARA and D. RICHMAN through the intermediary of the AIDS Research and Reference Reagent Program, Division of AIDS, NIAID, NIH (USA) (Catalogue references : No. 776 and No. 1392).
(§1) The virus production was measured by quantifying the activity of the inverse transcriptase associated with viral particles released into the culture supernatant. In short, cells were infected with 100 TCID50 for 30 minutes; after adsorption of the virus, unbound particles were removed by two washings and the cells were cultivated in the presence of different concentrations of the compounds tested for 5 days before determining the viral production. The concentration inhibiting 50% of the viral multiplication (IC50) came from the computer plot of the median effect of the dose effect results (Chou et al. Elsevier Science Publishers, Cambridge U.K. (1985), 19-28).

[1] = test system: HIV-1 resistant to Nevirapine (N119); test: microbe, parasite or virus in culture; format: cell-based; conditions: for IC50: Human immunodeficiency virus 1, CEM-SS, read-out: IC50, strain resistant to Nevirapine; for SI (selectivity index): Table 3, strain resistant to Nevirapine
Procedure: The effects of the compounds were evaluated on the replication of HIV-1 (see Table 2) on CEM-SS cells (cell lines of the lymphocytic lineage) strongly infected with HIV-1 LAI as described by Moog et al. (Antiviral Research (1994), 24, 275-288). The CEM-SS and the HIV-1 resistant to Nevirapine (N119) carrying a point mutation at codon 181 of the IT, were supplied respectively by P. NARA and D. RICHMAN through the intermediary of the AIDS Research and Reference Reagent Program, Division of AIDS, NIAID, NIH (USA) (Catalogue references : No. 776 and No. 1392).
as §1

CEM-SS cells = test: cytotoxicity on non-infected cells (MTT test); format: cell-based; conditions: MTT, 5 days
Procedure: (§2) In parallel experiments, the cytotoxicity of the molecules was measured on non-infected cells, after an incubation of 5 days in the presence of these molecules, by using a […] titration (MTT test) based on the ability of the mitochondrial dehydrogenases of the living cells to reduce 3-(4,5-dimethylthiazol-2-yl)-2,5-diphenyltetrazolium bromide in formazan (Mosmann et al. J. Immunol. Methods ([…]), 65, 55-63). The concentration cytotoxic at 50% (CC50) is the concentration at which the DO540 has been reduced to half and is calculated by using the program mentioned above.

[2] = cytotoxicity on non-infected cells (MTT test); format: cell-based; conditions: human; Table 2; non-infected CEM-SS cells, MTT, 5 days
Procedure: as §2

isolated virion HIV-1LAI = test: infectivity of the isolated virion after treatment with inhibitors (HT4LacZ cells); format: cell-based
Procedure: H9 cells chronically infected with HIV-1LAI (10^8 /ml) were cocultivated with MT4 cells (10^8 /ml) for 48 hours in an RMPI medium supplemented by 10% of calf foetal serum (CFS). The cells were then removed by centrifugation and then the supernatant liquid was filtered (0.45 μm) to remove residual cells and cell debris.
After having been incubated with the various inhibitors, the viral supernatants (200 μl) were deposited in the filtering part of a VectaSpin tube (WHATMAN) fitted with an ANAPORE membrane of porosity 0.02 μm. For 10 minutes they were subjected to centrifugation, the acceleration of which reached 6000 g at the filtering membrane. The viral residuums thereby obtained (10-15 μl ) were washed 3 times under the same conditions with 500 μl of RPMI then restored to their initial volumes with RPMI containing 10% of CFS.
The HT4LacZ-1 cells were kept in a DMEM medium (glucose 4.5 g/l) supplemented with 10% of calf foetal serum in the presence of Gentamycin (50 mg/l). These cells stemmed from Hela cells in which had been cloned, on the one hand the gene coding for the human CD4 so as to render them susceptible to infection by the HIV (Chesebro and Wehrly, 1988, J. Virol., 62, 3779-3788), and on the other hand the gene for β-Galactosidase which, placed under the dependent of the LTR of the HIV-1 served as a marker for the viral infection (Rocancourt et al. (1990) J. Virol. 1990 64-6, 2660-2688). When the virus infects such cells after its integration into the cellular genome, the production of the regulatory protein TAT activates the LTR of the HIV. The result is an activation of the gene of β-Galactosidase which leads to its production in the intracellular medium and more particularly in the nucleus. It is this protein that serves as a marker of the infection.
The evening of day 0, the HT4LacZ-1 cells were diluted at the rate of 75000 cells per ml of medium. 100 μl of this suspension was then distributed over a flat bottomed plate with 96 wells and was cultivated overnight at 37° C. (5% of CO2).
The morning of day 1, the supernatant liquid was removed by aspiration. Each well was then complemented with 200 μl of the viral supernatant dilutions to be tested. Each dilution was made in a DMEM medium (glucose 4.5 g/l) supplemented with 10% of CFS. The plates were then placed in an environment at 37° C. in the presence of 5% of CO2.
After 48 hours of culture, the supernatant liquid was aspirated, then each well was washed 3 times in PBS before being complemented with 200 μl of developing buffer (Tris-HCl 50 mM pH=8.5, ONPG 5 mg/ml β-mercapto-ethanol 7 μl/ml Triton×100 0.05%). After 4 hours of incubation at 37° C., the optical density of each well was measured.
The concentration of each of the inhibitors of the IT of the HIV-1 was adjusted to 50 mM in DMSO. The later dilutions were carried out on RPMI 1640. 2 μl of suitable dilutions of each of these inhibitors were added to 198 μl of a freshly unfrozen viral suspension. After 3 hours of incubation at ambient temperature, these suspensions were filtered on 0.02 μ VecraSpin tubes, then washed 3 times with 500 μl of RPMI 1640. The viral residuums were then adjusted to 200 μL with the culture medium (RPMI-10% CFS), then tested with regard to their infectivity on HT4LacZ cells.

## Cc1c(Sc2ccccc2)n(COCc2ccccc2)c(=O)[nH]c1=O [BPT, 1-benzyloxymethyl-6-(phenylthio)thymine, reference compound]
IT of recombinant HIV-1
  IC50: 0.4 µM

## Cc1cc(C)cc(Sc2c(C)cnc(O)c2[N+](=O)[O-])c1 [Compound 7a, 5-methyl-3-nitro-4-(3', 5'-dimethylphenyl)thiopyridin-2(1H)-one]
IT of recombinant HIV-1
  IC50: > 10 µM
HIV-1 LAI
  IC50: 0.12 µM
  SI (selectivity index): > 83
[1]
  IC50: > 10 µM
CEM-SS cells; Table 3, non-infected cells
  CC50: > 10 µM
[2]
  CC50 at 120 h: > 10 µM

## CCc1c(Sc2cc(C)cc(C)c2)cc(=O)[nH]c1C [Compound 16, 5-ethyl-6-methyl-4-(3', 5'-dimethylphenyl)thio-pyridin-2(1H)-one]
IT of recombinant HIV-1
  IC50: 0.4 µM
HIV-1 LAI
  IC50: 0.5 µM
  SI (selectivity index): > 20
[2]
  CC50 at 120 h: > 10 µM

## Cc1cc(C)cc(Sc2c([N+](=O)[O-])c(O)nc3ccccc23)c1 [Compound 7f, 3-nitro-4-(3', 5'-dimethylphenyl)-thiopuinoline-2(1H)-one]
HIV-1 LAI
  IC50: 3.8 µM
  SI (selectivity index): > 26
[1]
  IC50: > 10 µM
CEM-SS cells; Table 2, non-infected CEM-SS cells
  CC50: > 100 µM
CEM-SS cells; Table 3, non-infected cells
  CC50: > 10 µM

## Cc1cccc(Sc2c(C)c[nH]c(=O)c2N)c1 [Compound 8e]
IT of recombinant HIV-1; read-out: IC50, inhibition of the inverse transcriptase, Table 5, IT of recombinant HIV-1
  IC50: > 4 µM
HIV-1 LAI
  IC50: 1.4 µM
  SI (selectivity index): > 55
[1]
  IC50: 41.5 µM
  SI (selectivity index): > 1
[2]
  CC50 at 120 h: 78 µM

## Cc1c(Sc2ccccc2)n(COCCO)c(=O)[nH]c1=O [HEPT, 1-[(2-hydroxyethoxy)methyl]-6-(phenylthio)thymine]
IT of recombinant HIV-1
  IC50: > 6 µM
Isolated virion HIV-1LAI; Human immunodeficiency virus 1, 1 μM inhibitor, 3 h, 100 TCID50, compared with viral supernatant subjected to same treatments, mean of 1 to 4 experiments, read-out: Activity of the isolated virions after treatment
  activity at 1 µM: 121%
Isolated virion HIV-1LAI; Human immunodeficiency virus 1, 10 μM inhibitor, 3 h, 100 TCID50, compared with viral supernatant subjected to same treatments, mean of 1 to 4 experiments, read-out: Activity of the isolated virions after treatment
  activity at 10 µM: 141%
Isolated virion HIV-1LAI; isolated virion
  activity on the isolated virion (in words): totally inactive

## Cc1cc(C)cc(Sc2c(N)c(O)nc3ccccc23)c1 [Compound 8f, 3-amino-4-(3', 5'-dimethylphenyl)-thio-quinoline-2(1H)-one]
HIV-1 LAI
  IC50: 0.25 µM
  SI (selectivity index): > 36
[1]
  IC50: 6.6 µM
  SI (selectivity index): > 1.5
CEM-SS cells; Table 3, non-infected cells
  CC50: 8.2 µM
[2]
  CC50 at 120 h: > 9 µM

## CCc1cnc(O)c([N+](=O)[O-])c1Sc1cc(C)cc(C)c1 [Compound 7b, 5-ethyl-3-nitro-4-(3', 5'-dimethylphenyl)thio-pyridin-2(1H)-one]
HIV-1 LAI
  SI (selectivity index): > 111
[1]
  IC50: 6.7 µM
  SI (selectivity index): > 1
CEM-SS cells; Table 3, non-infected cells
  CC50: > 10 µM
[2]
  CC50 at 120 h: > 10 µM

## Cc1cccc(Sc2c(C)c[nH]c(=O)c2[N+](=O)[O-])c1 [Compound 7e, 5-methyl-3-nitro-4-(3'-methylphenyl)thio-pyridin-2(1H)-one]
IT of recombinant HIV-1
  IC50: > 10 µM
[2]
  CC50 at 120 h: > 10 µM

## CCc1cnc(O)c(N)c1Sc1cc(C)cc(C)c1 [Compound 8b, 3-amino-5-ethyl-4-(3', 5'-dimethylphenyl)thio-pyridin-2(1H)-one]
HIV-1 LAI
  IC50: 0.01 µM
  SI (selectivity index): > 1000
[1]
  IC50: 6.7 µM
  SI (selectivity index): > 1
CEM-SS cells; Table 3, non-infected cells
  CC50: > 10 µM
[2]
  CC50 at 120 h: > 10 µM

## CCC(=O)Nc1c(Sc2cc(C)cc(C)c2)c(C)c[nH]c1=O [Compound 11c, 5-methyl-3-propionamido-4-(3', 5'-dimethylphenyl)thio-pyridin-2(1H)-one]
IT of recombinant HIV-1
  IC50: > 4 µM
HIV-1 LAI
  IC50: 41.4 µM
  SI (selectivity index): > 2
[2]
  CC50 at 120 h: > 100 µM

## CCc1c(C)nc(O)c(NC(C)=O)c1Sc1cc(C)cc(C)c1 [Compound 11g, 3-acetamido-5-ethyl-6-methyl-4-(3', 5'-dimethylphenyl)thio-pyridin-2(1H)-one]
HIV-1 LAI
  IC50: 0.05 µM
  SI (selectivity index): > 1600
[1]
  IC50: 4.3 µM
  SI (selectivity index): > 23
CEM-SS cells; Table 3, non-infected cells
  CC50: > 100 µM
[2]
  CC50 at 120 h: > 80 µM
